In ChEMBL document CHEMBL1138514, “Rhodamine inhibitors of P-glycoprotein: an amide/thioamide "switch" for ATPase activity” (J Med Chem, 2009):
pIC50: −log10 of the molar value.

Columns and labels:
[1] = Octanol-water partition coefficient, log P of the compound
[2] = Permeability from apical to basolateral side of MDCK2 cell monolayer over expressing MDR1 assessed as drug concentration associated with cell at 5 uM after 1 hr of drug washout by methanol in presence of LSN335984; settings: dog
[3] = (§1) Permeability from basolateral to apical side of MDCK2 cells over expressing MDR1 at 5 uM after 1 hr; settings: dog, MDCK-MDR1, 1 h, 5 µM
[4] = (§2) Permeability from apical to basolateral side of MDCK2 cells over expressing MDR1 at 5 uM in presence LSN335984 pretreated for 30 mins measured after 1 hr; settings: dog, MDCK-MDR1, 1 h, 5 µM
[5] = (§3) Permeability from basolateral to apical side of MDCK2 cells over expressing MDR1 at 5 uM in presence LSN335984 pretreated for 30 mins measured after 1 hr; settings: dog, MDCK-MDR1, 1 h, 5 µM
[6] = (§4) Permeability from apical to basolateral side of MDCK2 cells over expressing MDR1 at 5 uM after 1 hr; settings: dog, MDCK-MDR1, 1 h, 5 µM
[7] = Permeability from apical to basolateral side of MDCK2 cell monolayer over expressing MDR1 assessed as drug concentration associated with cell at 5 uM after 1 hr of drug washout by methanol; settings: dog
[8] = target: T1, ATP-dependent translocase ABCB1 (Homo sapiens, UniProt P08183); assay: Inhibition of human MDR1 expressed in MDCK2 cells assessed as enhancement of Calcein-AM uptake treated 30 mins before Calcein-AM challenge measured after 20 mins
T1 sequence (P08183 whole entry): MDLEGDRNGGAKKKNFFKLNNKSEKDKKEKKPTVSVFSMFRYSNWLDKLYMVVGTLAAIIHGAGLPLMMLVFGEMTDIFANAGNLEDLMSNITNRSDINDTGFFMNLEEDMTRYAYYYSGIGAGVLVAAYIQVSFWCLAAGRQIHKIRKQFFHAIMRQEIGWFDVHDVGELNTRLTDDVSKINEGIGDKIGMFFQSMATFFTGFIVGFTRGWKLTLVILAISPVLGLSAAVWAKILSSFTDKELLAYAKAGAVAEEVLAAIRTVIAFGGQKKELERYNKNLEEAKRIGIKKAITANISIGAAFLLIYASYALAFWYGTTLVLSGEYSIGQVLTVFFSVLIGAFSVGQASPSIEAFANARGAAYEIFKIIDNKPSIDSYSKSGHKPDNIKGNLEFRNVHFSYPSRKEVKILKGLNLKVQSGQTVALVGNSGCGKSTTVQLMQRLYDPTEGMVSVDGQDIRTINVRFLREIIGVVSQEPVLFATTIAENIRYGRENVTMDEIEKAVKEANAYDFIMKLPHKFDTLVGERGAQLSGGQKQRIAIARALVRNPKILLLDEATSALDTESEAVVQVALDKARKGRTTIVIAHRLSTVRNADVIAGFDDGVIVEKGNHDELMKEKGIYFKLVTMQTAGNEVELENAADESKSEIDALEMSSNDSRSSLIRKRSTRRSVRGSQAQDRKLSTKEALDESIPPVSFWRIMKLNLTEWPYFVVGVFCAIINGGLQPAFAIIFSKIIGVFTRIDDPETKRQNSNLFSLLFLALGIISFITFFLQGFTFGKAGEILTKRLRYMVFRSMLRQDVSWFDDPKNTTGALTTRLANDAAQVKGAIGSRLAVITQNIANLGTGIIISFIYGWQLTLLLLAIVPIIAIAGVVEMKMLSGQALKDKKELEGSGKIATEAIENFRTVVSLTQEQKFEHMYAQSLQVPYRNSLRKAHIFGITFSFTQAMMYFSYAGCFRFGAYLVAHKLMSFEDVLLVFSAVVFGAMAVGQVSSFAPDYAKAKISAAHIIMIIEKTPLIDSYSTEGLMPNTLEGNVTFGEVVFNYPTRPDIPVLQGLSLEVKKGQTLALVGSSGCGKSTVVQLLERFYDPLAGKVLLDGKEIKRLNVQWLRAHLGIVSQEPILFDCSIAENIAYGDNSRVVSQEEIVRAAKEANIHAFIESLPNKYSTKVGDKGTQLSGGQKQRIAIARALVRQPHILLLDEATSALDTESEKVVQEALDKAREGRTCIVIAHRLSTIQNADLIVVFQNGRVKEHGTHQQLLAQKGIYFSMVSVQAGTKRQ

MDR3 (ABCB1) = MDR3 (ABCB1) (Mus musculus, UniProt P21447); assay: Induction of mouse cysteine-less MDR3 ATPase activity relative to basal activity
Sequence of MDR3 (ABCB1) (P21447 whole entry): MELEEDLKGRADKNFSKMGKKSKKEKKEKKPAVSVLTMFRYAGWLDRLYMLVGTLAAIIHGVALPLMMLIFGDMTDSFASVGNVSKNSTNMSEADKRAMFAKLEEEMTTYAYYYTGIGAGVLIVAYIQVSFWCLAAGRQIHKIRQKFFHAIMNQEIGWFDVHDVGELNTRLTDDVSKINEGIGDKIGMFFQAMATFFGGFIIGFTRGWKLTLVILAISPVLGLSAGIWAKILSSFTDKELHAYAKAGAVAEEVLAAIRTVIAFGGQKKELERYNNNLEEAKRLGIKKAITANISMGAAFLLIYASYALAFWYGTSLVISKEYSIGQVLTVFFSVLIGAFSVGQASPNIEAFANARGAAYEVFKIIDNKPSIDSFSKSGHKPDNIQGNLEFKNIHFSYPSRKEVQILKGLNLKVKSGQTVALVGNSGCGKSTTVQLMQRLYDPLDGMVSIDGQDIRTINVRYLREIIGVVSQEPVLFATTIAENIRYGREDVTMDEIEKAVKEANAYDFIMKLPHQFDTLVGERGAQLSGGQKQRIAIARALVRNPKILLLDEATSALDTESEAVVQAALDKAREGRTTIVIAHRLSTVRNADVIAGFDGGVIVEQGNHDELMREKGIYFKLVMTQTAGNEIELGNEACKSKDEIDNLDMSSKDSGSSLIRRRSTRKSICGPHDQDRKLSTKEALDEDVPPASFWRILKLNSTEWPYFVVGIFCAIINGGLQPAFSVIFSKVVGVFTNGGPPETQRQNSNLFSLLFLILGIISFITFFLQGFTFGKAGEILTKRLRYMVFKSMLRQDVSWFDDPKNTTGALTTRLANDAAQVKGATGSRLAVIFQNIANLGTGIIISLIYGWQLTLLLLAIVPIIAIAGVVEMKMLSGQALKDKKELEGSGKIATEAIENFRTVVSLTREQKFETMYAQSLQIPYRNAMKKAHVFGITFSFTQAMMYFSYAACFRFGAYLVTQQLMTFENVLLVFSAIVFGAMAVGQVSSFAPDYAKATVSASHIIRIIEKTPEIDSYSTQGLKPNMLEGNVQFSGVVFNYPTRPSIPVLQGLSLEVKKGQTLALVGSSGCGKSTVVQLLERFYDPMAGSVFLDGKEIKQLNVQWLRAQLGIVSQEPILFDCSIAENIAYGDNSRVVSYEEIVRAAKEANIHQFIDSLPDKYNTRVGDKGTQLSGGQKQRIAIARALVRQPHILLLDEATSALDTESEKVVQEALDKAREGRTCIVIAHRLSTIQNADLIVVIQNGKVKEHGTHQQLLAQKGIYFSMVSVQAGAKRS

MDR1 (ABCB1) = MDR1 (ABCB1) (Homo sapiens, UniProt P08183); assay: Induction of human histidine10-tagged MDR1 ATPase activity expressed in BHK cells relative to basal activity
Sequence of MDR1 (ABCB1) (P08183 whole entry): as the sequence (P08183 whole entry) above

MDR1 [9] = assay: Efflux ratio of permeability from apical to basolateral over basolateral to apical side in MDCK2 cells over expressing MDR1 at 5 uM after 1 hr in presence LSN335984 pretreated for 30 mins measured after 1 hr; settings: dog
MDR1 [10] = assay: as §1; settings: dog, MDCK-MDR1
MDR1 [11] = assay: as §2; settings: dog
MDR1 [12] = assay: (§5) Efflux ratio of permeability from apical to basolateral over basolateral to apical side in MDCK2 cells over expressing MDR1 at 5 uM after 1 hr; settings: dog, MDCK-MDR1
MDR1 [13] = assay: as §3; settings: dog
MDR1 [14] = assay: as §4; settings: dog, MDCK-MDR1
[15] = Ratio of permeability from apical to basolateral side after 1 hr of drug washout by methanol to apical to basolateral side in MDCK2 cell monolayer over expressing MDR1 at 5 uM after 1 hr of drug washout by methanol in presence LSN335984; settings: dog, mdck-ii
[16] = target: ATP-dependent translocase ABCB1 (Mus musculus, UniProt P21447); assay: Inhibition of verapamil-stimulated ATPase activity of mouse cysteine-less MDR3
Sequence of ATP-dependent translocase ABCB1 (Mus musculus, UniProt P21447) (P21447 whole entry, looked up): as the sequence (P21447 whole entry) above

[17] = target: T1, ATP-dependent translocase ABCB1; assay: Inhibition of verapamil-stimulated ATPase activity of human histidine10-tagged MDR1 expressed in BHK cells
[18] = as §5; settings: dog, MDCK-MDR1, 1 h, 5 µM
[19] = human histidine10-tagged MDR1 expressed in BHK cells
[20] = MDCK-MDR1, with LSN335984 (concentration not stated)

C[N+](C)=c1ccc2c(-c3ccc(C(=S)N4CCCCC4)s3)c3cc4c5c(c3sc-2c1)CCCN5CCC4.F[P-](F)(F)(F)(F)F
logP [1]: 2.7
Activity ([2]; MDCK-MDR1, 1 h): 30%
permeability [3]: 5 ×10⁻⁶ cm/s
permeability [4]: 0.08 ×10⁻⁶ cm/s
permeability [5]: 0.16 ×10⁻⁶ cm/s
permeability [6]: 0.08 ×10⁻⁶ cm/s
Activity ([7]; MDCK-MDR1, 1 h): 23%

C[N+](C)=c1ccc2c(-c3ccc(C(=S)N4CCOCC4)s3)c3cc4c5c(c3[se]c-2c1)CCCN5CCC4
pIC50 [8]: 4.85

CN(C)c1ccc2c(-c3ccccc3)c3ccc(=[N+](C)C)cc-3[se]c2c1
fold induction (MDR3 (ABCB1); mouse cysteine-less MDR3): 4
fold induction (MDR1 (ABCB1); [19]): 7.2
pIC50 [8]: 4.96

CCN(CC)C(=O)c1ccc(-c2c3ccc(=[N+](C)C)cc-3[se]c3cc(N(C)C)ccc23)s1.F[P-](F)(F)(F)(F)F
logP [1]: -0.39
Activity ([2]; mdck-ii, 1 h): 24%
fold induction (MDR3 (ABCB1); mouse cysteine-less MDR3): 10.1
fold induction (MDR1 (ABCB1); [19]): 10.5
Activity ([7]; mdck-ii, 1 h): 11%

C[N+](C)=c1ccc2c(-c3ccc(C(=S)N4CCCCC4)s3)c3cc4c5c(c3[se]c-2c1)CCCN5CCC4
pIC50 [8]: 5.28

CN(C)c1cccc(-c2c3ccc(=[N+](C)C)cc-3[se]c3cc(N(C)C)ccc23)c1
fold induction (MDR1 (ABCB1); [19]): 7.6

C[N+](C)=c1ccc2c(-c3ccccc3)c3cc4c5c(c3[se]c-2c1)CCCN5CCC4.F[P-](F)(F)(F)(F)F
logP [1]: 2.4
efflux ratio at 1 h, 5 µM (MDR1 [9]; [20]): 0.9
Activity ([2]; mdck-ii, 1 h): 64%
fold induction (MDR3 (ABCB1); mouse cysteine-less MDR3): 2.1
fold induction (MDR1 (ABCB1); [19]): < 1.5
Papp B→A at 1 h, 5 µM (MDR1 [10]): 25 ×10⁻⁶ cm/s
pIC50 [8]: 5.31
Papp A→B at 1 h, 5 µM (MDR1 [11]; [20]): 1.3 ×10⁻⁶ cm/s
efflux ratio at 1 h, 5 µM (MDR1 [12]): 15
Papp B→A at 1 h, 5 µM (MDR1 [13]; [20]): 1.2 ×10⁻⁶ cm/s
Papp A→B at 1 h, 5 µM (MDR1 [14]): 1.6 ×10⁻⁶ cm/s
Ratio [15]: 2
pIC50 [16]: 6.55
pIC50 [17]: 5.64
Activity ([7]; mdck-ii, 1 h): 32%

CN(C)c1ccc(-c2c3ccc(=[N+](C)C)cc-3[se]c3cc(N(C)C)ccc23)cc1
fold induction (MDR3 (ABCB1)): 2.3
fold induction (MDR1 (ABCB1); bhk): 6.8
pIC50 [16]: 4.68

CCOC(=O)c1ccc(-c2c3ccc(=[N+](C)C)cc-3sc3cc(N(C)C)ccc23)s1
fold induction (MDR3 (ABCB1); mouse cysteine-less MDR3): 2.9

COc1cccc(-c2c3ccc(=[N+](C)C)cc-3sc3cc(N(C)C)ccc23)c1.[Br-]
logP [1]: 0.14
Activity ([2]; mdck-ii, 1 h): 56%

C[N+](C)=c1ccc2c(-c3ccccc3)c3cc4c5c(c3[te]c-2c1)CCCN5CCC4
fold induction (MDR1 (ABCB1); [19]): 3

CN(C)c1ccc(-c2c3ccc(=[N+](C)C)cc-3[te]c3cc(N(C)C)ccc23)cc1
fold induction (MDR1 (ABCB1); [19]): 4.5

CN(C)c1ccc(-c2c3ccc(=[N+](C)C)cc-3[se]c3c4c5c(cc23)CCCN5CCC4)cc1
fold induction (MDR1 (ABCB1); [19]): < 1.5
pIC50 [17]: 5.17

COc1cccc(-c2c3ccc(=[N+](C)C)cc-3[se]c3cc(N(C)C)ccc23)c1
fold induction (MDR3 (ABCB1); mouse cysteine-less MDR3): 6.4
fold induction (MDR1 (ABCB1); [19]): 2.5

CN(C)c1ccc2c(-c3ccccc3C(=O)O)c3ccc(=[N+](C)C)cc-3sc2c1
fold induction (MDR3 (ABCB1); mouse cysteine-less MDR3): 3.5

COC(=O)c1ccccc1-c1c2ccc(=[N+](C)C)cc-2sc2cc(N(C)C)ccc12
fold induction (MDR3 (ABCB1); mouse cysteine-less MDR3): 6

COc1cccc(-c2c3ccc(=[N+](C)C)cc-3[te]c3cc(N(C)C)ccc23)c1
fold induction (MDR1 (ABCB1); [19]): 5.7

COc1ccc(-c2c3ccc(=[N+](C)C)cc-3sc3cc(N(C)C)ccc23)cc1OC.F[P-](F)(F)(F)(F)F
logP [1]: 0.28
Activity ([2]; mdck-ii, 1 h): 53%
fold induction (MDR3 (ABCB1); mouse cysteine-less MDR3): 3
fold induction (MDR1 (ABCB1); [19]): 8.2
Activity ([7]; mdck-ii, 1 h): 16%

CN(C)c1ccc2c(-c3ccsc3C(=O)O)c3ccc(=[N+](C)C)cc-3sc2c1
fold induction (MDR1 (ABCB1); [19]): 4.3

CN(C)c1ccc2c(-c3ccc(C(=O)O)s3)c3ccc(=[N+](C)C)cc-3sc2c1
fold induction (MDR1 (ABCB1); [19]): 2.7

CN(C)c1ccc2c(CCCOc3ccccc3)c3ccc(=[N+](C)C)cc-3sc2c1
fold induction (MDR3 (ABCB1); mouse cysteine-less MDR3): 6
fold induction (MDR1 (ABCB1); [19]): 6.2

CCN(CC)C(=O)c1ccc(-c2c3ccc(=[N+](C)C)cc-3sc3cc(N(C)C)ccc23)s1
fold induction (MDR3 (ABCB1); mouse cysteine-less MDR3): 10.6

CN(C)c1ccc2c(-c3ccc(N4CCOCC4)cc3)c3ccc(=[N+](C)C)cc-3[se]c2c1
fold induction (MDR3 (ABCB1); mouse cysteine-less MDR3): < 1
fold induction (MDR1 (ABCB1); [19]): 3.3
pIC50 [16]: 4.64

CN(C)c1ccc2c(-c3ccc(C(=S)N4CCCCC4)s3)c3ccc(=[N+](C)C)cc-3sc2c1
logP [1]: 1.7
pIC50 [16]: 4.49

C[N+](C)=c1ccc2c(-c3ccc(C(=S)N4CCCCC4)s3)c3cc4c5c(c3[te]c-2c1)CCCN5CCC4
pIC50 [8]: 4.85

C[N+](C)=c1ccc2c(-c3ccc(C(=S)N4CCOCC4)s3)c3cc4c5c(c3sc-2c1)CCCN5CCC4
pIC50 [8]: 4.70

CN(C)c1ccc2c(-c3ccccc3)c3ccc(=[N+](C)C)cc-3[te]c2c1
fold induction (MDR1 (ABCB1); [19]): 8.4

CN(C)c1ccc2c(-c3ccc(C(=O)O)s3)c3ccc(=[N+](C)C)cc-3[te]c2c1
fold induction (MDR1 (ABCB1); [19]): 1.8

CN(C)c1ccc2c(-c3ccc(N4CCOCC4)cc3)c3ccc(=[N+](C)C)cc-3sc2c1
fold induction (MDR1 (ABCB1); [19]): 4.8

CN(C)c1cccc(-c2c3ccc(=[N+](C)C)cc-3sc3cc(N(C)C)ccc23)c1
fold induction (MDR3 (ABCB1); mouse cysteine-less MDR3): 3.5
fold induction (MDR1 (ABCB1); [19]): 7.7

CN(C)c1ccc(-c2c3ccc(=[N+](C)C)cc-3sc3cc(N(C)C)ccc23)cc1
fold induction (MDR3 (ABCB1); mouse cysteine-less MDR3): 1
fold induction (MDR1 (ABCB1); [19]): 9

CN(C)c1ccc2c(-c3ccsc3C(=O)O)c3ccc(=[N+](C)C)cc-3[se]c2c1
fold induction (MDR3 (ABCB1); mouse cysteine-less MDR3): 1.7
fold induction (MDR1 (ABCB1); [19]): 2.1

CN(C)c1ccc2c(-c3ccc(C(=S)N4CCCCC4)s3)c3ccc(=[N+](C)C)cc-3[te]c2c1.F[P-](F)(F)(F)(F)F
efflux ratio at 1 h, 5 µM (MDR1 [9]; MDCK-MDR1): 1.7
Papp B→A at 1 h, 5 µM (MDR1 [10]): 2.2 ×10⁻⁶ cm/s
Papp A→B at 1 h, 5 µM (MDR1 [11]; MDCK-MDR1): 0.12 ×10⁻⁶ cm/s
efflux ratio at 1 h, 5 µM (MDR1 [12]): 24
Papp B→A at 1 h, 5 µM (MDR1 [13]; MDCK-MDR1): 0.2 ×10⁻⁶ cm/s
Papp A→B at 1 h, 5 µM (MDR1 [14]): 0.09 ×10⁻⁶ cm/s
Activity ([7]; MDCK-MDR1, 1 h): 12%

CN(C)c1cccc(-c2c3ccc(=[N+](C)C)cc-3[se]c3c4c5c(cc23)CCCN5CCC4)c1
fold induction (MDR1 (ABCB1); [19]): < 1.5
pIC50 [17]: 4.63

CCN(CC)C(=O)c1ccccc1-c1c2ccc(=[N+](C)C)cc-2sc2cc(N(C)C)ccc12
fold induction (MDR3 (ABCB1); mouse cysteine-less MDR3): 10.1

CN(C)c1cccc(-c2c3ccc(=[N+](C)C)cc-3[te]c3cc(N(C)C)ccc23)c1
fold induction (MDR1 (ABCB1); [19]): 5.5

CN(C)c1ccc2c(-c3ccc(CCl)cc3)c3ccc(=[N+](C)C)cc-3oc2c1.[Br-] [TETRAMETHYLROSAMINE]
logP [1]: 1.1
efflux ratio at 1 h, 5 µM (MDR1 [9]; MDCK-MDR1): 1.6
Activity ([2]; mdck-ii, 1 h): 54%
fold induction (MDR3 (ABCB1); mouse cysteine-less MDR3): 3.7
Papp B→A at 1 h, 5 µM (MDR1 [10]): 101 ×10⁻⁶ cm/s
Papp A→B at 1 h, 5 µM (MDR1 [11]; [20]): 1.4 ×10⁻⁶ cm/s
Ratio [18]: 338
Papp B→A at 1 h, 5 µM (MDR1 [13]; [20]): 2.1 ×10⁻⁶ cm/s
Papp A→B at 1 h, 5 µM (MDR1 [14]): 0.3 ×10⁻⁶ cm/s
Ratio [15]: 4.3
Activity ([7]; mdck-ii, 1 h): 14.5%
